Source: patent US12371428B2 (Exelixis, Inc., priority 2019, dated 2025)
Read-outs that look alike come from different tables or passages of the source.

What was measured:
Format in all cases: cell-based
[1] = molecular target: Met (phospho-Met, HGF-stimulated PC-3 prostate cancer cells) (Homo sapiens (Human), UniProt P08581); test: Met autophosphorylation ELISA in PC-3 cells (Example F); settings: cellular activity, read-out: c-Met IC50
Method in brief: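 PC-3 cells, serum-starved 3 h, were treated with compounds (8-point dose curve, 0.3% DMSO final) for 1 h, then stimulated with 100 ng/mL recombinant human HGF for 10 min. Lysate phospho-Met (panTyr) was quantified by sandwich ELISA; IC50 from 4-parameter logistic fit.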

[2] = molecular target: KDR (phospho-KDR, VEGF165-stimulated HUVEC cells) (Homo sapiens (Human), UniProt P35968); test: KDR autophosphorylation ELISA in HUVEC cells (Example G); settings: cellular activity
Chain of KDR (phospho-KDR, VEGF165-stimulated HUVEC cells) (P35968 20-1356): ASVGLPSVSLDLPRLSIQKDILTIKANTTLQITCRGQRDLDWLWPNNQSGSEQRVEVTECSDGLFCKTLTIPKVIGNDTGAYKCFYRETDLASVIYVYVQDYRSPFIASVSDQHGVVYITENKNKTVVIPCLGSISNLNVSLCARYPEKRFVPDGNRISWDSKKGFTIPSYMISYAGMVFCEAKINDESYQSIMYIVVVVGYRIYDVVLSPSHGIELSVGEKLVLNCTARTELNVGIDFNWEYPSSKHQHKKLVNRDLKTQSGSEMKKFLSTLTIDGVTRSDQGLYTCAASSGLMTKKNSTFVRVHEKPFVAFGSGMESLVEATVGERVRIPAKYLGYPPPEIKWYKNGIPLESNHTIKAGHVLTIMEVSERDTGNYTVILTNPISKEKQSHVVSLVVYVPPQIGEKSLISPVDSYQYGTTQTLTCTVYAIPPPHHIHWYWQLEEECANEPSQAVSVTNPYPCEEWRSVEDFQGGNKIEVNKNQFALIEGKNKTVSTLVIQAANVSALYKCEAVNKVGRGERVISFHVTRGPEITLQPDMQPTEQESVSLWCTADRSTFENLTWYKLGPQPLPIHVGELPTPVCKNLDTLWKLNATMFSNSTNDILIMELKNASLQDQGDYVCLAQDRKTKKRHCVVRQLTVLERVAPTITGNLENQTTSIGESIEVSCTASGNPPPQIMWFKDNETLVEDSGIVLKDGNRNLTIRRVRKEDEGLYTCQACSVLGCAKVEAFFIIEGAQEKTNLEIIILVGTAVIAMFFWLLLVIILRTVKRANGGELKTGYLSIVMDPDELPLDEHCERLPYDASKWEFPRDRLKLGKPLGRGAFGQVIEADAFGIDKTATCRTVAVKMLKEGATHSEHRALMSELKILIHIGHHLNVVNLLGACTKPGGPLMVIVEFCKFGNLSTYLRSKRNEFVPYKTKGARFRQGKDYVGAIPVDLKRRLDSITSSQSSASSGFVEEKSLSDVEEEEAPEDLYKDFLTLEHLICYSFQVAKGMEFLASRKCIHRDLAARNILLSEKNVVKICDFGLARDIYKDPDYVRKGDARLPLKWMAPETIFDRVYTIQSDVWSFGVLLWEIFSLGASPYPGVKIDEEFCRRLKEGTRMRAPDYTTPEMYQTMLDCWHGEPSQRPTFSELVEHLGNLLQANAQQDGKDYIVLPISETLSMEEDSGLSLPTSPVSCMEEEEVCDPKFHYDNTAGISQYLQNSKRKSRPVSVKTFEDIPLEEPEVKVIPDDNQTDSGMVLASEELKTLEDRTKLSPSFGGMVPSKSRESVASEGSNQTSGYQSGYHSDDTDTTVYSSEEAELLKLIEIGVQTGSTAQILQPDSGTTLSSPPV
Method in brief: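 Read-out is phospho-KDR measured by ELISA in lysates of VEGF165-stimulated (100 ng/mL, 5 min) HUVEC that were serum-starved 24 h and then pre-exposed 1 h to compound across 8 doses in 0.3% DMSO. Unstimulated lysates defined 0% and stimulated vehicle lysates 100% activity; IC50 values come from 4-parameter logistic regression.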

[3] = molecular target: AXL (phospho-AXL, Gas6-stimulated A-172 glioblastoma cells) (Homo sapiens (Human), UniProt P30530); test: AXL autophosphorylation ELISA in A-172 cells (Example E); settings: cellular activity, read-out: Axl IC50
Chain of AXL (phospho-AXL, Gas6-stimulated A-172 glioblastoma cells) (P30530 26-894): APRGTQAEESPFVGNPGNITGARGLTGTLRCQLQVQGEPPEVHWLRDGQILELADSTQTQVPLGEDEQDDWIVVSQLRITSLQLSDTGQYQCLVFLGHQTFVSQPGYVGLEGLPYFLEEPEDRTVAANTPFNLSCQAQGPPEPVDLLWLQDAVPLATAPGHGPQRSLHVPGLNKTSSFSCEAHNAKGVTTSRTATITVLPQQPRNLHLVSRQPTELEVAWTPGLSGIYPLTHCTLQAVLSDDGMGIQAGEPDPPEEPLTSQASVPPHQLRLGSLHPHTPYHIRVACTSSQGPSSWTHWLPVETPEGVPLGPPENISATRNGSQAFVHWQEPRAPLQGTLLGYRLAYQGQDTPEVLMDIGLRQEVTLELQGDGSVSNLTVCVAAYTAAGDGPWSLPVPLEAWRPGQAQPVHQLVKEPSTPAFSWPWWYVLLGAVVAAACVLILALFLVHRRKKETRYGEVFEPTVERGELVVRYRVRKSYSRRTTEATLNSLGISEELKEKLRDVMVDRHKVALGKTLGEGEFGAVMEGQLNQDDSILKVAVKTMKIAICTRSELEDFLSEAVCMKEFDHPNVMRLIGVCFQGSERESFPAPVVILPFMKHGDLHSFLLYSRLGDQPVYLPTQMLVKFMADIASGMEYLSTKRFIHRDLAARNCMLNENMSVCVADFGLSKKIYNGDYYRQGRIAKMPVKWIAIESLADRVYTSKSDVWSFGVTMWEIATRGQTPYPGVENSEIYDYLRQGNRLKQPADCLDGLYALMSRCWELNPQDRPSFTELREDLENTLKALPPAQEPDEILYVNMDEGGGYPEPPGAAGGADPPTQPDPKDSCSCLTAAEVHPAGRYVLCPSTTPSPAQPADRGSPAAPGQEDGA
Method in brief: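 Phospho-AXL was measured by ELISA in lysates of Gas6-stimulated A-172 cells, starved 24 h in serum-free medium and exposed 1 h to an 8-point compound dilution at 0.3% DMSO.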

[4] = molecular target: Mer (phospho-Mer, MERTK-transfected 293A cells) (Homo sapiens (Human), UniProt Q12866); test: Mer autophosphorylation ELISA in transient transfected 293A cells (Example H); settings: cellular activity
Chain of Mer (phospho-Mer, MERTK-transfected 293A cells) (Q12866 21-999): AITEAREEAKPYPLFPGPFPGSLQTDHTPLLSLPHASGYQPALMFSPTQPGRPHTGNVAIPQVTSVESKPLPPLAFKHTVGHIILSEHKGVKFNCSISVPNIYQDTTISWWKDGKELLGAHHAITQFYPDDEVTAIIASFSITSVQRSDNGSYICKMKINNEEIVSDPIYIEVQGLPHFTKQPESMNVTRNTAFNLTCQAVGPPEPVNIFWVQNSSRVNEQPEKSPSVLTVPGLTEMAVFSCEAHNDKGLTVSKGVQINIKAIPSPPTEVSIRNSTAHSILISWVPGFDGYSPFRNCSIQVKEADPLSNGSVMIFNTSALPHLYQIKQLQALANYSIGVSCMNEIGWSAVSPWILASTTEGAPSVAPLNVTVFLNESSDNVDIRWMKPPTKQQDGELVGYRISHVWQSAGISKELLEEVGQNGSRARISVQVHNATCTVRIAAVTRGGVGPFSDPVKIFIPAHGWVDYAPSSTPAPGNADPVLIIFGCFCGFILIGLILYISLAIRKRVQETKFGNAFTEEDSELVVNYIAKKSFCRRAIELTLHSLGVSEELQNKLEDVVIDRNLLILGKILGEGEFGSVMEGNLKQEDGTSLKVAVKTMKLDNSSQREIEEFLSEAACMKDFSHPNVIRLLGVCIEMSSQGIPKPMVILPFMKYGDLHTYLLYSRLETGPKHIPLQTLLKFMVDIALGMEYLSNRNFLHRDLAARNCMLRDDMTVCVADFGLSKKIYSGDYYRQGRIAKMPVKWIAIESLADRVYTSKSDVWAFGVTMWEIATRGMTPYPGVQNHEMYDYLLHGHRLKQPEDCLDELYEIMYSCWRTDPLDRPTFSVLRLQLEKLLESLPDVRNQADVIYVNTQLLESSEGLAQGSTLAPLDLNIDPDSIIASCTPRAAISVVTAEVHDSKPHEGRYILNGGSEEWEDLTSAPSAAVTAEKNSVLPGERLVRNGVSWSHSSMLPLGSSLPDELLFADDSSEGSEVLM
Method in brief: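 IC50 from phospho-Mer ELISA of MERTK-transfected 293A cell lysates after 1 h treatment with serially diluted compound in serum-free medium.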

[5] = Met autophosphorylation ELISA in PC-3 cells
[6] = KDR autophosphorylation ELISA in HUVEC cells
[7] = AXL autophosphorylation ELISA in A-172 cells
[8] = Mer autophosphorylation ELISA in transient transfected 293A cells

Chain of Met (phospho-Met, HGF-stimulated PC-3 prostate cancer cells) (P08581 25-1390): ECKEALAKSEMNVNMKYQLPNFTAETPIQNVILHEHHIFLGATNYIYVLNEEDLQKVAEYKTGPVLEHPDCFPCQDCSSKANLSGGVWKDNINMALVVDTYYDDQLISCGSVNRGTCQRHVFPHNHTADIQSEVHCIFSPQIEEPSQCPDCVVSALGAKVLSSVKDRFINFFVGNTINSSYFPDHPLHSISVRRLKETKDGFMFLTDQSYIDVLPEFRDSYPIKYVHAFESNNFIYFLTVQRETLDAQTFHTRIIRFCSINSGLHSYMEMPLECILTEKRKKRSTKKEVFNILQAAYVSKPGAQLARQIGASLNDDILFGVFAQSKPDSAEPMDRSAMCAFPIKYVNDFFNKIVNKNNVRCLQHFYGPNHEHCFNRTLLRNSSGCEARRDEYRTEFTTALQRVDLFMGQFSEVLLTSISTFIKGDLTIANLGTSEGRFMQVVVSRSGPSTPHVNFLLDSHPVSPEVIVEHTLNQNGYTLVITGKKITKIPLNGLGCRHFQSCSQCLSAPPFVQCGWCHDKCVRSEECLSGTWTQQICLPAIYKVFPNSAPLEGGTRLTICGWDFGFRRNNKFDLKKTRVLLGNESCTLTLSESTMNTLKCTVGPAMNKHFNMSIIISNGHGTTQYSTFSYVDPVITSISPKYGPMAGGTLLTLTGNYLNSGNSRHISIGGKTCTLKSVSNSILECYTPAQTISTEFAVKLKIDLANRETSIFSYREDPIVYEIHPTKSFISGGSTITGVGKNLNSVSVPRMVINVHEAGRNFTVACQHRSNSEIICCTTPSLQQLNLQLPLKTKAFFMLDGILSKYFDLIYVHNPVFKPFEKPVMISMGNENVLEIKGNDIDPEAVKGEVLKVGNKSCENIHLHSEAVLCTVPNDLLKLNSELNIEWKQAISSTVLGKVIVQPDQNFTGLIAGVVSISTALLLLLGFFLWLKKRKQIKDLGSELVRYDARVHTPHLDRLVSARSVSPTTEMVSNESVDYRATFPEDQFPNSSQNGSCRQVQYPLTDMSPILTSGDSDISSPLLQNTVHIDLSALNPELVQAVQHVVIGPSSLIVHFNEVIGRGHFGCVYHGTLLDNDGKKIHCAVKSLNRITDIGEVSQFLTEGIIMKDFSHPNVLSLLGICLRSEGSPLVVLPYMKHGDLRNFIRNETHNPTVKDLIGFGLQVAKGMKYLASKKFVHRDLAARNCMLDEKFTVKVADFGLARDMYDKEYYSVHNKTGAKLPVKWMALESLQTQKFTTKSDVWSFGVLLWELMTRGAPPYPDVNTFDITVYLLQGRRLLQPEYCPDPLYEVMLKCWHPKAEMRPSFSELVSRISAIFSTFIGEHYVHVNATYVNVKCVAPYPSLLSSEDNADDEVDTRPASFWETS

SMILES | IC50 [1, 5] [nM] | IC50 [2, 6] [nM] | IC50 [3, 7] [nM] | IC50 [4, 8] [nM] | IC50 ([1]; PC-3 cells) [nM] | IC50 ([2]; HUVEC cells) [nM] | IC50 ([3]; A-172 cells) [nM] | IC50 ([4]; transfected 293A cells) [nM]
COc1cc2nccc(Oc3ccc(NC(=O)c4c(C)n(C)c(C)c(-c5ccc(F)cc5C)c4=O)cc3F)c2nc1OC [Compound 774, N-[4-[(6,7-dimethoxy-1,5-naphthyridin-4-yl)oxy]-3-fluorophenyl]-5-(4-fluoro-2-methylphenyl)-1,2,6-trimethyl-4-oxopyridine-3-carboxamide] | < 100 | 100 to 300 | < 100 | < 100 |  |  |  | 
COCCOc1cnc2c(Oc3ccc(NC(=O)c4c(C)nc(C)c(-c5ccc(F)cc5C)c4O)cc3F)ccnc2c1 [Compound 683, N-[3-fluoro-4-[[7-(2-methoxyethoxy)-1,5-naphthyridin-4-yl]oxy]phenyl]-5-(4-fluoro-2-methylphenyl)-4-hydroxy-2,6-dimethylpyridine-3-carboxamide] | < 100 | < 100 | < 100 | < 100 |  |  |  | 
COc1cc2nccc(Oc3ccc(NC(=O)c4c(Cl)n(C)c(C)c(-c5ccc(F)cc5)c4=O)cc3F)c2nc1OC [Compound 647, 2-chloro-N-[4-[(6,7-dimethoxy-1,5-naphthyridin-4-yl)oxy]-3-fluorophenyl]-5-(4-fluorophenyl)-1,6-dimethyl-4-oxopyridine-3-carboxamide] | < 100 | > 300 | < 100 | < 100 |  |  |  | 
COCCOc1nc2c(Oc3ccc(NC(=O)c4ccc(C)n(-c5ccc(F)cc5)c4=O)cc3F)ncnc2cc1OC [Compound 650, N-[3-fluoro-4-[7-methoxy-6-(2-methoxyethoxy)pyrido[3,2-d]pyrimidin-4-yl]oxyphenyl]-1-(4-fluorophenyl)-6-methyl-2-oxopyridine-3-carboxamide] | < 100 | < 100 | < 100 | < 100 |  |  |  | 
COc1cc2nccc(Oc3ccc(NC(=O)c4cn(C)c(C5CC5)c(-c5ccc(F)cc5)c4=O)cc3F)c2nc1OC [Compound 728, 6-cyclopropyl-N-[4-[(6,7-dimethoxy-1,5-naphthyridin-4-yl)oxy]-3-fluorophenyl]-5-(4-fluorophenyl)-1-methyl-4-oxopyridine-3-carboxamide] | < 100 | 100 to 300 | < 100 | < 100 |  |  |  | 
COc1cc2nccc(Oc3ccc(NC(=O)c4c(C)n(CC(F)F)cc(-c5ccc(F)c(F)c5)c4=O)cc3F)c2nc1OC [Compound 816, 1-(2,2-difluoroethyl)-5-(3,4-difluorophenyl)-N-[4-[(6,7-dimethoxy-1,5-naphthyridin-4-yl)oxy]-3-fluorophenyl]-2-methyl-4-oxopyridine-3-carboxamide] |  |  |  |  | < 100 | > 300 | < 100 | < 100
COc1cc2nccc(Oc3cc(F)c(NC(=O)c4c(C)nc(C)c(-c5ccc(F)cc5C)c4O)cc3F)c2nc1Cl [Compound 737, N-[4-[(6-chloro-7-methoxy-1,5-naphthyridin-4-yl)oxy]-2,5-difluorophenyl]-5-(4-fluoro-2-methylphenyl)-4-hydroxy-2,6-dimethylpyridine-3-carboxamide] | < 100 | < 100 | < 100 | < 100 |  |  |  | 
COCCc1nc(C)c(-c2ccc(F)cc2)c(O)c1C(=O)Nc1ccc(Oc2ccnc3cc(OC)c(OC)nc23)c(F)c1 [Compound 785, N-[4-[(6,7-dimethoxy-1,5-naphthyridin-4-yl)oxy]-3-fluorophenyl]-5-(4-fluorophenyl)-4-hydroxy-2-(2-methoxyethyl)-6-methylpyridine-3-carboxamide] | < 100 | < 100 | < 100 | < 100 |  |  |  | 
CCc1c(C)c(C(=O)Nc2ccc(Oc3ccnc4cc(OC)c(OC)nc34)c(F)c2)c(=O)n(-c2ccc(F)cc2)c1C [Compound 330, N-[4-[(6,7-dimethoxy-1,5-naphthyridin-4-yl)oxy]-3-fluorophenyl]-5-ethyl-1-(4-fluorophenyl)-4,6-dimethyl-2-oxopyridine-3-carboxamide] | < 100 | > 300 | < 100 | < 100 |  |  |  | 
COc1cc2nccc(Oc3ccc(NC(=O)c4c(C)c(F)c(C)n(-c5ccc(F)cc5)c4=O)cc3)c2nc1OC [Compound 325, N-[4-[(6,7-Dimethoxy-1,5-naphthyridin-4-yl)oxy]phenyl]-5-fluoro-1-(4-fluorophenyl)-4,6-dimethyl-2-oxopyridine-3-carboxamide] | < 100 | < 100 | < 100 | < 100 |  |  |  | 
